Laboratory results reported in paper PMC7614687, “Modulation of the substrate specificity of the kinase PDK1 by distinct conformations of the full-length protein*” (Science signaling, 2023).
“And” between values parts separate entries of the source, which are not always exact repeats. Equal entries are not always repeated. Where two headings read alike, the source gives them in different places.

Columns and labels:
[1] = target: T1, PDK1 (Homo sapiens, UniProt O15530); assay: Thermo Fisher "PDK1 Direct" assay (peptide Ser/Thr 07, FRET readout); type: biochemical; details: for Hill slope, PDK1 direct / IC50: 10-point titration
T1 sequence (O15530 1-556): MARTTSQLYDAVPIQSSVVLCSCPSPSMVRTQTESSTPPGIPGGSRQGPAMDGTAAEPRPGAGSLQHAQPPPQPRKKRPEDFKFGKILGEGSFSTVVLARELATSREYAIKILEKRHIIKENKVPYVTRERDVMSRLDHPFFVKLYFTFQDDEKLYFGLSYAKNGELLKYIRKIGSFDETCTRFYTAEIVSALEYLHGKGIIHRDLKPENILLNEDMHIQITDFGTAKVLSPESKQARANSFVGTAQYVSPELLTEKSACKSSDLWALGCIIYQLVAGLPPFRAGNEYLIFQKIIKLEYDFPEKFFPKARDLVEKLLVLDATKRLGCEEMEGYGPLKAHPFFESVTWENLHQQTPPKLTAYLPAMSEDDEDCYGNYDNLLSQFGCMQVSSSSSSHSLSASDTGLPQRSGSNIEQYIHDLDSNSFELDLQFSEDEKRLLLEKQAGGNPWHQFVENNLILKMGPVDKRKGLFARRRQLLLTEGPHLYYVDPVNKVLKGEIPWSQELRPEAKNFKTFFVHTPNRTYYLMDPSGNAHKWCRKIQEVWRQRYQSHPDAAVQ

[2] = target: T2, GST-PDK1_1-556 (Homo sapiens, UniProt O15530); assay: AlphaScreen biotin-PIP3 / GST-PDK1_1-556 displacement; type: binding; details: PIP3 20 nM, GST-PDK1 3 nM
T2 construct: made in house; host or cells: HEK293 cells (transient transfection of pEBG2T); peptide synthesized by Pepscan
T2 sequence (O15530 1-556): T1 sequence (O15530 1-556)
Protocol: (§1) The AlphaScreen® assay was performed following the general guidelines from the manufacturer (Perkin Elmer) ([29]). In short, the assay was performed in a final volume of 25 μl in white 384-well microtiter plates (Greiner) in a standard buffer containing 50 mM Tris-HCl (pH 7.4), 100 mM NaCl, 2 mM DTT, 0.01% (v/v) Tween-20 and 0.1% (w/v) BSA, with the addition of 5 μl of beads (anti-GST coated acceptor beads and streptavidin-coated donor beads; nickel chelate-coated acceptor beads and streptavidin-coated donor beads; or nickel chelate-coated acceptor beads and GSH-coated donor beads, 20 μg/ml final concentrations for each bead type). AlphaScreen assays for His-tagged proteins and GST-fusion proteins were performed using nickel chelate-coated acceptor beads and GSH-coated donor beads; alphascreen assays for His-tagged proteins and biotinylated molecules were performed using nickel chelate-coated acceptor beads and streptavidin-coated donor beads; alphascreen assays for GST-fusion proteins and biotinylated molecules were performed using anti-GST coated acceptor beads and streptavidin-coated donor beads (Perkin Elmer).
The conditions for each AlphaScreen assay were identified in cross-titration experiments for each interaction to choose the ideal pair of concentrations within the linear range of the interactions. As required, the standard conditions were modified to use less material, to increase binding of the interacting molecules, to lower background signal, and so on. His-PDK1 and GST-fusion protein in the presence or absence of the different compounds were incubated in the dark for 60 min at room temperature and the emission of light from the acceptor beads was measured in an EnVision reader (Perkin Elmer) or Spark plate reader (Tecan). AlphaScreen assays were performed at least twice, although most experiments were performed multiple times by different researchers with different batches of purified proteins with similar results.
Biotin-PIP3 interactions with GST-PDK1_1-556 or GST-PDK1_360-556 were assessed in the standard buffer. […]

[3] = target: T3, PDK1_1-556 (Homo sapiens, UniProt O15530); assay: Differential scanning fluorimetry, thermal stability of PDK1_1-556; type: binding; details: PDK1 1 μM
T3 construct: effect of HYG8 on the thermal stability (ΔTm) of PDK1_1-556 (H) and PDK1_50-359 (I); His (N); made in house; host or cells: Sf9 insect cells (baculovirus)
T3 sequence (O15530 1-556): T1 sequence (O15530 1-556)
Protocol: The thermal stability of PDK1 was assessed by monitoring the unfolding of PDK1 by the increase in the fluorescence of SYPRO Orange (Invitrogen) using a real-time PCR device (StepOnePlus, Applied Biosystems and BioRad CFX96) following a previously described protocol ([70]). The reactions were performed in a final volume of 10 μl in white 96-well PCR microtiter plates (Greiner) and contained 1 μM PDK1, 10 mM HEPES (pH 7.5), 150 mM NaCl, 1/1000 SYPRO Orange and 1 mM dithiothreitol. For valsartan, the assay buffer was modified to exclude NaCl. PIFtide or compounds (at a final DMSO concentration of 1%) were added to this reaction mixture. The temperature gradient was performed in steps of 0.3 °C in the range from 25 to 70 °C. To calculate the Tm values, data were exported to GraphPad Prism and curves fitted to a Boltzmann sigmoidal equation with an acceptable confidence interval of 95%. Statistical analysis was performed with Infostat software (http://www.infostat.com.ar) and GraphPad Prism by first verifying a normal distribution of pooled residuals (Shapiro-Wilks test) and homogeneity of variance (F test), and then performing a one-way ANOVA followed by the post hoc comparisons test indicated in each figure legend.

[4] = target: T4, His-PDK1_1-556 and GST-PDK1_360-556 (Homo sapiens, UniProt O15530); assay: AlphaScreen PDK1 dimerization assay His-PDK1_1-556 / GST-PDK1_360-556; type: binding
T4 construct: made in house; host or cells: Sf9 insect cells (His-PDK1_1-556); HEK293 cells (GST-PDK1_360-556)
T4 sequence (O15530 1-556): T1 sequence (O15530 1-556)
Protocol: as §1
The conditions for each AlphaScreen assay were identified in cross-titration experiments for each interaction to choose the ideal pair of concentrations within the linear range of the interactions. […] His-PDK1 and GST-fusion protein in the presence or absence of the different compounds were incubated in the dark for 60 min at room temperature and the emission of light from the acceptor beads was measured in an EnVision reader (Perkin Elmer) or Spark plate reader (Tecan). […]

[5] = replicate point 1, read-out: % Inhibition Point 1
[6] = replicate point 2, read-out: % Inhibition Point 2
[7] = single point, N=2, read-out: Inhibition at 1 μM (%)
[8] = absence of PIFtide, read-out: IC50 (nM), displacement of His-PDK1_1-556 interaction with GST-PDK1_360-556
[9] = with PIFtide, read-out: IC50 (nM), displacement of His-PDK1_1-556 interaction with GST-PDK1_360-556 with PIFtide

Compound | inhibition at 1 µM [1, 5] [%] | inhibition at 1 µM [1, 6] [%] | inhibition at 1 µM [1, 7] [%] | Hill slope, PDK1 direct [1] | IC50 [1] [nM] | displacement of PIP3 from GST-PDK1_1-556 [2] | Tm (°C), temperature stabilization of PDK1_1-556 ([3]; compound 1 µM) | Tm (°C), temperature stabilization of PDK1_1-556 ([3]; compound 20 µM) | IC50 [4, 8] [nM] | IC50 [4, 9] [nM]
O=C(O[C@H]1[C@@H](OP(=O)(O)O)[C@H](OP(=O)(O)O)[C@@H](OP(=O)(O)O)[C@H](OP(=O)(O)O)[C@H]1OP(=O)(O)O)c1ccccc1 [HYG8, 2-O-benzoyl-IP5] | 97 | 98 | 98 | 1.39 | 24.5 | higher potency than IP5 | 11.7 °C and 11-15 °C | 13.7 °C and 13-16 °C | 33.3 | 19.5
CCCCO[C@H]1[C@@H](OP(=O)(O)O)[C@H](OP(=O)(O)O)[C@@H](OP(=O)(O)O)[C@H](OP(=O)(O)O)[C@H]1OP(=O)(O)O [HYG14, 2-O-butyl-IP5] | 98 | 101 | 100 | 1.61 | 16.2 | almost completely displaced | 15.2 °C and 11-15 °C | 16.5 °C and 13-16 °C | 29.6 | 29.4
